For one test, the target named is T1, human NET (Homo sapiens, UniProt P23975).
T1 construct: expressed in transfected cells
Kind of test: Human norepinephrine transporter assay, [3H]nisoxetine binding to cell membrane homogenates. Here is the method: Human Norepinephrine Transporter Assay
Nonspecific binding was determined in the presence of 1 μM desipramine. Following incubation, the samples were filtered rapidly under vacuum through glass fiber filters (GF/B, Packard) presoaked with 0.3% PEI, and rinsed several times with ice-cold 50 mM Tris-HCl using a 96-sample cell harvester (Unifilter, Packard). The filters were dried then counted for radioactivity in a scintillation counter (Topcount, Packard) using a scintillation cocktail (Microscint 0, Packard). The results were expressed as a percent inhibition of the control radioligand specific binding. The standard reference compound was protriptyline, which was tested in each experiment at several concentrations to obtain a competition curve from which its IC50 is calculated. Typical assay volumes were 250 μL in 96-well plate and compounds are solubilized in water.

Test [1] concerns the target T2, Nitric oxide synthase (neuronal, human recombinant) nNOS (Homo sapiens, UniProt P29475).
T2 construct: purchased Axxora LLC ALX-201-068
Kind of test: nNOS (human) enzyme assay, [3H]-L-arginine to L-citrulline conversion. It is filed as biochemical.
Method: (§2) Primary stock solutions of test compounds at a concentration of 6 mM are prepared. The primary stock solutions of each test compound are prepared freshly in distilled water on the day of study. […] Concentration range of test compound utilized for nNOS are 0.001 to 300 μM and for eNOS are 0.003 to 1000 μM. The vehicle of the test compound or inhibitor is used as blank control. […] The IC50 concentration of L-NAME was run in parallel as a control.
(§3) All incubations are performed in duplicate:
Total reaction volume is 60 μL.
(§4) Mix using a vortex mixer and incubate the above reaction mixture at 37° C. in an incubator for 30 mins.
(§5) Add 400 μL of ice-cold Stop Buffer at the end of the incubation period to stop the reaction. (The EDTA in the Stop Buffer chelates all of the available calcium.) Mix using a vortex mixer and transfer the reaction samples to spin cups and centrifuge using a microcentrifuge, at 13,000 rpm for 30 sec. at room temperature.
(§6) Remove the spin cups from the holder and transfer 450 μL of eluate (containing the unbound L-citrulline) to scintillation vials. Add 3 mL of scintillation fluid and quantify the radioactivity in a liquid scintillation counter.
(§7) Data is analyzed using a Sigmoidal dose-response (variable slope) curve to determine the IC50 value of the test compound.
(§8) Y=Bottom+(Top−Bottom)/(1+10̂((Log IC50−X)*Hill Slope))

The target in test [2] is T3, Nitric oxide synthase (endothelial, human recombinant) eNOS (Homo sapiens, UniProt P29474).
T3 construct: purchased Axxora LLC ALX-201-070
Kind of test: eNOS (human) enzyme assay, [3H]-L-arginine to L-citrulline conversion. The class given is biochemical.
Method: as §2, §3
Total reaction volume is 60 μL.
as §4, §5, §6, §7, §8

Test [3] relates to L5/L6 spinal nerve ligation model of neuropathic pain (Chung model). Kind of test: Chung L5/L6 spinal nerve ligation model, thermal hyperalgesia. The class given is in vivo, rat. The conditions noted are these: rats, 30 mg/kg i.p., one dose. How it is done: The L5/L6 spinal nerve was surgically ligated and animals allowed to recover for a period of 7-10 days. During this period animals develop neuropathic pain. The reduction of paw withdrawal latency after an infrared thermal stimulus (post-SNL) was measured following the induction period for comparison with pre-surgery baseline levels (BL). Following drug administration, thermal hyperalgesia was measured at various time points.
(§1) (a) Chung Model of Injury-induced Neuropathic-like Pain: The experimental designs for the Chung Spinal Nerve Ligation SNL Model assay for neuropathic pain are depicted in FIGS. 1a and 1b. Nerve ligation injury was performed according to the method described by Kim and Chung (Kim and Chung, Pain 50:355-363, 1992). This technique produces signs of neuropathic dysesthesias, including tactile allodynia, thermal hyperalgesia, and guarding of the affected paw. Rats were anesthetized with halothane, and the vertebrae over the L4 to S2 region were exposed. The L5 and L6 spinal nerves were exposed, carefully isolated, and tightly ligated with 4-0 silk sutures distal to the DRG. After ensuring homeostatic stability, the wounds were sutured, and the animals allowed to recover in individual cages. Sham-operated rats were prepared in an identical fashion except that the L5/L6 spinal nerves were not ligated. […]

The test system is the same in test [4]. Kind of test: Chung L5/L6 spinal nerve ligation model, tactile allodynia. The class given is in vivo, rat. The conditions noted are these: rats, 30 mg/kg i.p., one dose. Here is the method:
The L5/L6 spinal nerve was surgically ligated and animals allowed to recover for a period of 7-10 days. During this period animals develop neuropathic pain. The reduction of tactile thresholds (post-SNL) was measured following the induction period for comparison with pre-surgery baseline levels (BL). Following drug administration, tactile allodynia was measured at various time points with calibrated von-Frey filaments.
as §1

Test [5] relates to migraine. The conditions noted are these: migraine patients, single i.v. administration; cited from earlier work.
Test [6] deals with migraine. Conditions: open pilot study; cited from earlier work.
[7] abbreviates: Table 2, compounds tested as hydrochloride salts, read-out: IC50, Human NET activity.
Setting [8] is: Table 2, compounds tested as hydrochloride salts.
[9] abbreviates: IC50, Human NET activity, Table 2, compounds tested as hydrochloride salts.

Structures are written as SMILES. “Also recorded” adds a separate entry of the source. Structures can show the parent of a compound that is named as a salt. Where two headings read alike, the source gives them in different places.

T1 sequence (P23975 whole entry): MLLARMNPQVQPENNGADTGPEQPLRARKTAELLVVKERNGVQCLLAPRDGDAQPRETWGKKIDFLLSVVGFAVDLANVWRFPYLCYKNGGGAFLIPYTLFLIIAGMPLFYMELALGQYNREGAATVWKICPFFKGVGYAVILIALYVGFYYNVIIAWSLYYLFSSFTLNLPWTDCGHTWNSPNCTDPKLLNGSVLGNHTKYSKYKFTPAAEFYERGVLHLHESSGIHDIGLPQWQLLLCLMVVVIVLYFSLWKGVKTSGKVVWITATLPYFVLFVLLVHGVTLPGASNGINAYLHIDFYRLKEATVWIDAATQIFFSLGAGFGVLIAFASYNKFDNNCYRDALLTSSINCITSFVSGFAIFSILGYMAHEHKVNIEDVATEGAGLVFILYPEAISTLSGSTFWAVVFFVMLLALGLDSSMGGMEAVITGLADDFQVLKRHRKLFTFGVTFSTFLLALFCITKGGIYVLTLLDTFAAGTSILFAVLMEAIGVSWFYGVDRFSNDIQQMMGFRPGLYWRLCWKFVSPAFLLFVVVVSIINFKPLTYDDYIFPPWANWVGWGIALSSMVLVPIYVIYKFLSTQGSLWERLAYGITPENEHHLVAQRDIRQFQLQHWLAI
T3 sequence (P29474 whole entry): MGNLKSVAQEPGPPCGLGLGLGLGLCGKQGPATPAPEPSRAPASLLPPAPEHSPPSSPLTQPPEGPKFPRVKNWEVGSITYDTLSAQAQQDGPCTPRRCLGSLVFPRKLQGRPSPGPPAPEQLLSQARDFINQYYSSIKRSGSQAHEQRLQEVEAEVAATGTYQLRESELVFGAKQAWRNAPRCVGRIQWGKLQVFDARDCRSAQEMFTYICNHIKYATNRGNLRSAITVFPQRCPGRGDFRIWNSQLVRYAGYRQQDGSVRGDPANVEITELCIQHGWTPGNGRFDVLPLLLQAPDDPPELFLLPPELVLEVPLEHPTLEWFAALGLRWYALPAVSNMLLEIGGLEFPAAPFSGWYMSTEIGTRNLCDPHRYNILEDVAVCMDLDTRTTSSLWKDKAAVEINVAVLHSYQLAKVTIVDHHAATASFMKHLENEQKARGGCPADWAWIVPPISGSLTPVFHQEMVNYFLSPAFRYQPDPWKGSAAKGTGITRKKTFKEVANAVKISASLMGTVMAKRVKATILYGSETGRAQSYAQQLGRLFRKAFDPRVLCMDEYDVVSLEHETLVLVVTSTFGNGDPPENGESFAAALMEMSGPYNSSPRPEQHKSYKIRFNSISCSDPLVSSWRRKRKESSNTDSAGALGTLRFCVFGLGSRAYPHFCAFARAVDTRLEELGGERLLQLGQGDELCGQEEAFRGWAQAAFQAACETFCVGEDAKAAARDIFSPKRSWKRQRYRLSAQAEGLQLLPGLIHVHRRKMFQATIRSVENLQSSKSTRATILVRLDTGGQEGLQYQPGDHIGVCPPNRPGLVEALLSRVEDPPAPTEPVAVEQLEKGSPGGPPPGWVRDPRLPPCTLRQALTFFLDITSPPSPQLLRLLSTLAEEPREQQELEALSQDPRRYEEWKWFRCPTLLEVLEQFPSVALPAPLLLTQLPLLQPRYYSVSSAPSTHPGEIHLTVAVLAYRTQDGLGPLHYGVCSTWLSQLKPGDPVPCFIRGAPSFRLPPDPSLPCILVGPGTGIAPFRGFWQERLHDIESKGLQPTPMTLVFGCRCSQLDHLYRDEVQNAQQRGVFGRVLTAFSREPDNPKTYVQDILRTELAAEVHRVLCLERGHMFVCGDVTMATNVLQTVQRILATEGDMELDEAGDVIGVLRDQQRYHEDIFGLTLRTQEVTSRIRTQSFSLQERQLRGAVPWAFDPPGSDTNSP
T2 sequence (P29475 whole entry): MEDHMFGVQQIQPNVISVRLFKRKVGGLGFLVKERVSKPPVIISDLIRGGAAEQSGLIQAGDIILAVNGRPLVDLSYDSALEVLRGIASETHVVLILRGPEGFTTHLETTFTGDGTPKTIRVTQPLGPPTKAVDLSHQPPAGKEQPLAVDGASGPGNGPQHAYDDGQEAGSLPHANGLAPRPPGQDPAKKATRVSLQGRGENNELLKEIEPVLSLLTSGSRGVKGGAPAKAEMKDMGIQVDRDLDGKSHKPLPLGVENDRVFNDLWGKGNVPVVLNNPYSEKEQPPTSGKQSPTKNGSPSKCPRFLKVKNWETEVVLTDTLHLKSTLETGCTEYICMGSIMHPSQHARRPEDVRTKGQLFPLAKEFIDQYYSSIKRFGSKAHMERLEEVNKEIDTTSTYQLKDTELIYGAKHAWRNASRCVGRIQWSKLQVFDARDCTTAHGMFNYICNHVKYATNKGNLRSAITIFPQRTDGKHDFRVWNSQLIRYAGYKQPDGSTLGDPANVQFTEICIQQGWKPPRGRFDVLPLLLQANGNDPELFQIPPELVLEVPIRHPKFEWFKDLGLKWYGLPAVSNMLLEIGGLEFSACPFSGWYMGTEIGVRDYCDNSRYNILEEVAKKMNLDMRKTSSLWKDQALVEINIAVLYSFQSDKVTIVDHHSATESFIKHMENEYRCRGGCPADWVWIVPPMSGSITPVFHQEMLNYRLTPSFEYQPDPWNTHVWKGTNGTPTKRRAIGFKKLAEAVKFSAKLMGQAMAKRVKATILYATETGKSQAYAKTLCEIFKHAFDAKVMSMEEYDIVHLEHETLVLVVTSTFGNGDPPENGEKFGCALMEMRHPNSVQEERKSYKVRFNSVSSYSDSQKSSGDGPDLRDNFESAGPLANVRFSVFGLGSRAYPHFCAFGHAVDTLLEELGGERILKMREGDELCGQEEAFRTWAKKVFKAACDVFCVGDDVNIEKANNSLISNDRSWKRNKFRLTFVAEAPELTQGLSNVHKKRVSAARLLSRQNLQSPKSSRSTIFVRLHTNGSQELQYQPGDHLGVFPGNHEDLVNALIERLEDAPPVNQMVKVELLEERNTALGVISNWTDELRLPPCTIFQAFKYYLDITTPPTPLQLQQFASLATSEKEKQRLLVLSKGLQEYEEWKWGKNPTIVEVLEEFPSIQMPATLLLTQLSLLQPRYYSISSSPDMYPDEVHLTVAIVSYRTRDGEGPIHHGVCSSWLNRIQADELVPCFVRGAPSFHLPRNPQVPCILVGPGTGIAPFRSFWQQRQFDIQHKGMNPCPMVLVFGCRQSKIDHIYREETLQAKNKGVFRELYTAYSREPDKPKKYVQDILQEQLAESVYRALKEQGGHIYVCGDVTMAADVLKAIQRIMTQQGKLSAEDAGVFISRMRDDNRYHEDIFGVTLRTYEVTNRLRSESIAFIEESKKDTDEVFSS

Consider `CNC1CCC(c2c[nH]c3ccc(NC(=N)c4cccs4)cc23)CC1` (mixture of isomers) [Compound 1, N-(3-(4-(methylamino)cyclohexyl)-1H-indol-5-yl)thiophene-2-carboximidamide], for which the IC50 on human NET (setting [7]) was 0.52 µM.
On the same count and under the same terms, as for `CCNC1CCC(c2c[nH]c3ccc(NC(=N)c4cccs4)cc23)CC1` (mixture of isomers) [Compound 5, N-(3-(4-(ethylamino)cyclohexyl)-1H-indol-5-yl)thiophene-2-carboximidamide], the figure is 0.27 µM.
Take `CCNC1CCC(c2c[nH]c3ccc(NC(=N)c4cccs4)cc23)C1` (mixture of isomers) [Compound 11, N-(3-(3-(ethylamino)cyclopentyl)-1H-indol-5-yl)thiophene-2-carboximidamide]: the results for the IC50 in test [1] (Table 3) and in test [2] (Table 3) were 0.257 µM and 14.3 µM, respectively.
On to `CN(C)C1CC=C(c2c[nH]c3ccc(NC(=N)c4cccs4)cc23)CC1` (racemic) [(±)-2, N-(3-(4-(dimethylamino)cyclohex-1-enyl)-1H-indol-5-yl)thiophene-2-carboximidamide], for which the IC50 in test [1] (setting [8]) came to 3 µM; in test [2] (setting [8]) it was 51.4 µM; at human NET (setting [9]) it was 0.55 µM.
As to `CNC1CC=C(c2c[nH]c3ccc(NC(=N)c4cccs4)cc23)CC1` (racemic) [(±)-3, N-(3-(4-(methylamino)cyclohex-1-enyl)-1H-indol-5-yl)thiophene-2-carboximidamide], the results for the concentration for half-maximal inhibition (IC50) (in test [1] (setting [8]); in test [2] (setting [8]); at human NET (setting [7])) were 1.73 µM, 32 µM and 1.3 µM, respectively.
On to `CCNC1CC=C(c2c[nH]c3ccc(NC(=N)c4cccs4)cc23)CC1` (racemic) [(±)-6, N-(3-(4-(ethylamino)cyclohex-1-enyl)-1H-indol-5-yl)thiophene-2-carboximidamide], for which the half-maximal inhibitory concentration (IC50) in test [1] (setting [8]) worked out at 1.42 µM; in test [2] (setting [8]) it was 40.3 µM; on human NET (setting [7]), 0.28 µM.
On to `CNC1CCCC(c2c[nH]c3ccc(NC(=N)c4cccs4)cc23)C1` (racemic) [(±)-8, N-(3-(3-(methylamino)cyclohexyl)-1H-indol-5-yl)thiophene-2-carboximidamide], for which the half-maximal inhibitory concentration (IC50) worked out at 7.76 µM in test [2] (Table 3) and 0.88 µM at human NET (IC50, Human NET, Table 3).
Turning to `CCNC1CCCC(c2c[nH]c3ccc(NC(=N)c4cccs4)cc23)C1` (racemic) [(±)-9, N-(3-(3-(ethylamino)cyclohexyl)-1H-indol-5-yl)thiophene-2-carboximidamide], the IC50 at human NET (IC50, Human NET, Table 3) came to 0.76 µM.
For the molecule `CCNC1CCCC(c2c[nH]c3ccc(NC(=N)c4cccs4)cc23)C1` (racemic) [(±)-10, N-(3-(3-(ethylamino)cyclohexyl)-1H-indol-5-yl)thiophene-2-carboximidamide], on human NET (IC50, Human NET, Table 3), the IC50 was 1.7 µM.
With `CNC1CCCC(c2c[nH]c3ccc(NC(=N)c4cccs4)cc23)C1` (single isomer, unassigned) [(±)-7, N-(3-(-3-(Methylamino)cyclohexyl)-1H-indol-5-yl)thiophene-2-carboximidamide], the IC50 in test [2] (Table 3) was found to be 77.6 µM; at human NET (IC50, Human NET, Table 3), 2.5 µM.
Consider `CN(C)C1CC=C(c2c[nH]c3ccc(NC(=N)c4cccs4)cc23)CC1` (single isomer, unassigned) [Compound 2a, N-(3-(4-(Dimethylamino)cyclohex-1-enyl)-1H-indol-5-yl)thiophene-2-carboximidamide], for which the values for the IC50 (in test [1] (setting [8]); in test [2] (setting [8]); at human NET (setting [9])) were 0.865 µM, 47.1 µM and 1.1 µM, respectively.
As to `CN(C)C1CC=C(c2c[nH]c3ccc(NC(=N)c4cccs4)cc23)CC1` (single isomer, unassigned) [Compound 2b, N-(3-(4-(Dimethylamino)cyclohex-1-enyl)-1H-indol-5-yl)thiophene-2-carboximidamide], the IC50 is 0.839 µM in test [1] (setting [8]), 96 µM in test [2] (setting [8]) and 0.96 µM on human NET (setting [9]).
With `CNC1CC=C(c2c[nH]c3ccc(NC(=N)c4cccs4)cc23)CC1` (single isomer, unassigned) [Compound 3a, N-(3-(4-(Methylamino)cyclohex-1-enyl)-1H-indol-5-yl)thiophene-2-carboximidamide], the IC50 in test [1] (setting [8]) amounted to 0.439 µM; in test [2] (setting [8]) it was 53.4 µM; at human NET (setting [7]) it was 1.1 µM.
Taken in the same sequence, the figures for `CNC1CC=C(c2c[nH]c3ccc(NC(=N)c4cccs4)cc23)CC1` (single isomer, unassigned) [Compound 3b, N-(3-(4-(Methylamino)cyclohex-1-enyl)-1H-indol-5-yl)thiophene-2-carboximidamide] were 0.537 µM, 40.9 µM and 1.1 µM.
Consider `CCN[C@H]1CC[C@H](c2c[nH]c3ccc(NC(=N)c4cccs4)cc32)CC1` (single isomer, unassigned) [Compound 5a, trans-N-(3-(4-(Ethylamino)cyclohexyl)-1H-indol-5-yl)thiophene-2-carboximidamide], for which the IC50 at human NET (setting [7]) was determined as 2.8 µM.
Still for that read-out and setting: as for `CCN[C@H]1CC[C@@H](c2c[nH]c3ccc(NC(=N)c4cccs4)cc32)CC1` (single isomer, unassigned) [Compound 5b, cis-N-(3-(4-(Ethylamino)cyclohexyl)-1H-indol-5-yl) thiophene-2-carboximidamide], the figure is 0.38 µM.
In the case of `CNC1CCCC(c2c[nH]c3ccc(NC(=N)c4cccs4)cc23)C1` (single isomer, unassigned) [Compound 7a, N-(3-(3-(Methylamino)cyclohexyl)-1H-indol-5-yl)thiophene-2-carboximidamide dihydrochloride [(+)-cis-enantiomer]], the IC50 in test [2] (Table 3) was determined as 49.3 µM; at human NET (IC50, Human NET, Table 3), 1 µM. Moreover, the “reversal of thermal hyperalgesia (antihyperalgesic effect)” value is “clear antihyperalgesic effect” in test [3] and “reversal of thermal hyperalgesia” in test [3] (listed as (+)−7a). For the same molecule, the “reversal of tactile allodynia (antiallodynic effect)” value in test [4] was “reversal of tactile hyperthesia; also recorded: pronounced antiallodynic effect”; in test [4] (listed as (+)−7a), “reversal of tactile allodynia”.
For `CNC1CCCC(c2c[nH]c3ccc(NC(=N)c4cccs4)cc23)C1` (single isomer, unassigned) [Compound 7b, N-(3-(3-(Methylamino)cyclohexyl)-1H-indol-5-yl)thiophene-2-carboximidamide dihydrochloride [(−)-cis-enantiomer]], the IC50 worked out at 75 µM in test [2] (Table 3) and 5.2 µM on human NET (IC50, Human NET, Table 3).
As for `CN[C@H]1CC[C@@H](c2c[nH]c3ccc(NC(=N)c4cccs4)cc32)CC1` [Compound 1a, N-(3-(4-(Methylamino)cyclohexyl)-1H-indol-5-yl)thiophene-2-carboximidamide], at human NET (setting [7]), the IC50 turned out to be 0.4 µM.
With `CN[C@H]1CC[C@H](c2c[nH]c3ccc(NC(=N)c4cccs4)cc32)CC1` [Compound 1b, N-(3-(4-(Methylamino)cyclohexyl)-1H-indol-5-yl)thiophene-2-carboximidamide], on human NET (setting [7]), the half-inhibitory concentration (IC50) came to 2 µM.
As to `CN(C)C1CCC(c2c[nH]c3ccc(NC(=N)c4cccs4)cc23)CC1` (stereo not drawn) [Compound 4, N-(3-(4-(dimethylamino)cyclohexyl)-1H-indol-5-yl)thiophene-2-carboximidamide], the half-maximal inhibitory concentration (IC50) in test [1] (setting [8]) is 3.44 µM; in test [2] (setting [8]) it was 31.8 µM; at human NET (setting [9]), 0.19 µM.
With `CNC(=N)NCCC[C@H](N)C(=O)O` [L-NMMA, N^G-monomethyl-L-arginine], in the test on migraine [5], the response rate is reported as 67%.
`C/C1=C2/[N-][C@H]([C@H](CC(N)=O)[C@@]2(C)CCC(=O)NC[C@@H](C)OP(=O)([O-])O[C@H]2[C@@H](O)[C@@H](n3cnc4cc(C)c(C)cc43)O[C@@H]2CO)[C@]2(C)N=C(/C(C)=C3N=C(/C=C4N=C1[C@@H](CCC(N)=O)C\4(C)C)[C@@H](CCC(N)=O)[C@]\3(C)CC(N)=O)[C@@H](CCC(N)=O)[C@]2(C)CC(N)=O.[Co+3].[OH-]` [hydroxycobalamin]: the “patients with a reduction in the frequency of migraine attack of 50%” value in the test on migraine [6] was 53%.

The values above are taken from patent US20090131503A1, “3,5 - SUBSTITUTED INDOLE COMPOUNDS HAVING NOS AND NOREPINEPHRINE REUPTAKE INHIBITORY ACTIVITY” (priority 2007, published 2009).
